Assay results from US6872727B1, “Polycyclic pyrimidine -2,4(1H,3H)-diones with functionalized alkyl residues at the 1- and/or 3-position(s); methods for their synthesis and pharmaceutical preparation” (Privates Institut fur Biomedizinische Forschung und Beratung, priority 1999, dated 2005).

How the values were obtained:
[1] = target: T1, human matrix metalloproteinase-2 (MMP-2; gelatinase A) (Homo sapiens, UniProt P08253); assay: Inhibition of human matrix metalloproteinase-2 (gelatinase A); format: biochemical; details: trypsin-activated MMP-2 from human dermal fibroblast culture supernatant; read-out: MMP-2 (50% inhibition)
T1 construct: to prepare the enzymatically active mature form of the enzyme; endogenous in cells; host or cells: human dermal fibroblasts (secreted into culture supernatant)
T1 sequence (P08253 110-660): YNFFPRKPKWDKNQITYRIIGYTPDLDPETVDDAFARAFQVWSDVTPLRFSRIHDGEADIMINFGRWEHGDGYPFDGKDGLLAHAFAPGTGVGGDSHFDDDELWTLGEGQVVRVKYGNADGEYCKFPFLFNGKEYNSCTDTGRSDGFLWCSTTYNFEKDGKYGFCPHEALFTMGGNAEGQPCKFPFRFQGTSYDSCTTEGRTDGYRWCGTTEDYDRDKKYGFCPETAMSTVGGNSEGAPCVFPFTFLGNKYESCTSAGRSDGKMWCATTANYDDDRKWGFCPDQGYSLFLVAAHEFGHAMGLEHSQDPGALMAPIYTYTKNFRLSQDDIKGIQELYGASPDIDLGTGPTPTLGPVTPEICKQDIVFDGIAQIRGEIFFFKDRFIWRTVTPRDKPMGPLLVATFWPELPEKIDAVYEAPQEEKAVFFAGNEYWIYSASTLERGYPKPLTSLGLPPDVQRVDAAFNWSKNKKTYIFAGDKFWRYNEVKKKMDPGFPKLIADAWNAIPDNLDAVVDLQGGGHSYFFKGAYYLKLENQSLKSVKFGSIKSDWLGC
Description: MMP-2 is easily prepared by standard procedures from the culture medium of cultivated human fibroblasts in reasonable quantities, and is therefore readily available. […] A screening system based on the measurement of the proteolytic activity of MMP-2 was developed to analyse the inhibitory effects of the various inhibitors described in Table 1.
To this end, human dermal fibroblasts were obtained and maintained in culture using standard methods. The cell-free culture supernatant containing the secreted pro-MMP-2 was treated with trypsin. The trypsin was inactivated with the specific active-site serine proteinase inhibitor Nα-p-tosyl-L-lysine-chloromethylketone (TLCK), and the active MMP-2 was partially purified by gel filtration on Sepharose 4B. The isolated MMP-2 was identified and characterized by the use of a commercially available immunoassay.
A simple nonradioactive assay was developed to measure MMP-2 activity using gelatin as a substrate that allows both a large number of samples to be analysed in parallel and to generate kinetic data. Partially purified MMP-2 was incubated with a suitable dilution of gelatin under standardized conditions (time, buffer, pH, temperature, inhibitor, additives), and uncleaved gelatin was separated from degradation products by suction filtration through a nitrocellulose filter. High-molecular-weight gelatin is thereby bound to the nitrocellulose filter, and the low-molecular-weight gelatin-derived peptides pass through it. The nitrocellulose-bound gelatin can be stained with Ponceau S or Commassie Brilliant Blue protein stains, and the degree of staining quantified densitometrically using a commercially available electrophoresis gel documentation system supported by dedicated analytical software. The nitrocellulose filtration is conducted using a commercially available dot- or slot-blotting apparatus.
The gelatinase assay described here has been validated by comparison with results obtained with an established collagenase assay using radioactive or fluorescently labeled collagen as substrate.
(§1) The enzymatic cleavage of commercially available synthetic internally quenched fluorigenic peptide substrates such as 7-methylcoumarin-4-yl-acetyl-prolyleucyl-glycyl-leucyl-(dinitrophenyl-L-α,β-diaminopropionyl)-alanyl-arginylamide (Mca-Pro-Leu-Gly-Leu-Dap(Dnp)-Ala-Arg-NH2) at the scissile -Gly-Leu-peptide bond separates the fluorescent Mca group from the dinitrophenol quencher, resulting in a strong linear increase in fluorescence intensity that can be readily measured in a fluorimeter (λexitation328 nm, λemission 393 nm) over the first few minutes of the reaction. The specificity of the assay for matrix metalloproteinases is provided by the type I collagen-derived sequence -Pro-Leu-Gly-Leu- in the synthetic substrate, as well as by the incubation conditions. To test the efficacy of the synthetic collagenase/MMP inhibitors, the residual enzymatic activity remaining after an incubation of enzyme plus different amounts of inhibitor is measured at a fixed enzyme and substrate concentration. For each inhibitor, three test series at different fixed substrate concentrations were carried out. From the time-dependent increase in fluorescence intensity measured, the velocity (v) of the enzymatic activity can be calculated as increase in arbitrary fluorescence intensity units per minute. The inhibition constant Ki is calculated graphically by the method of Dixon (1953) by plotting the reciprocal of the reaction velocity 1/v on the ordinate, and the inhibitor concentration on the abscissa. The x-intercept of the linear plot is defined as minus K1 value.
1984 μl assay buffer (100 mM Tris-HCl pH 7,5, 100 mM NaCl, 10 mM CaCl2, 0,05% Brij 35) • 2 μl inhibitor dissolved in DMSO, or DMSO alone as a solvent control • 4 μl enzyme (MMP-2, MMP-9, or the catalytic domain of MMP-8) • 10 μl Mca-Pro-Leu-Gly-Leu-Dap(Dnp)-Ala-Arg-NH2 in DMSO Method • 1. […]

[2] = target: T2, catalytic domain of human matrix metalloproteinase-8 (MMP-8; neutrophil collagenase) (Homo sapiens, UniProt P22894); assay: Inhibition of catalytic domain of human MMP-8, fluorimetric assay, Dixon plot; format: biochemical; details: recombinant catalytic domain, Mca-Pro-Leu-Gly-Leu-Dap(Dnp)-Ala-Arg-NH2 substrate
T2 construct: express heterologously only the catalytic domain, rather than the entire MMP-8, in Escherichia coli; made in house; host or cells: Escherichia coli
Description: The catalytic domain of MMP-8 was chosen as a further test enzyme because of its high stability and constitutive activity, obviating the need for enzymatic or chemical activation, which is a well-known source of error, e.g. the commonly used organomercurial compounds used to activate pro-MMPs may interfere in subsequent assays or affect the activity of the enzyme, leading to erroneous interpretation of results. The cloning strategy was designed to express heterologously only the catalytic domain, rather than the entire MMP-8, in Escherichia coli. With the so-constructed expressed catalytic domain, we obtained a stable enzymatically active, highly pure enzyme that is well suited for routine investigation of the efficacy of the synthetic inhibitors and provides highly reproducible test results.
The cloning and expression of the recombinant catalytic domain of MMP-8 follows the protocol developed by Schnierer et al. (Schnierer, S., Kleine, T., Gote, T., Hilleman, A., Knäuper, V., and Tschesche, H., 1993, The recombinant catalytic domain of human neutrophil collagenase lacks type I collagen substrate specificity, Biochem. Biophys. Res. Commun. 191, 319-326).
as §1
1984 μl assay buffer (100 mM Tris-HCl pH 7,5, 100 mM NaCl, 10 mM CaCl2, 0,05% Brij 35) • 2 μl inhibitor dissolved in DMSO, or DMSO alone as a solvent control • 4 μl enzyme (MMP-2, MMP-9, or the catalytic domain of MMP-8) • 10 μl Mca-Pro-Leu-Gly-Leu-Dap(Dnp)-Ala-Arg-NH2 in DMSO Method • 1. Incubate buffer, enzyme, and inhibitor for 5 min at room temperature, with stirring. • 2. Start the reaction by adding 10 μl substrate in DMSO • 3. Record the increase in fluorescence intensity over 2 min. Confirmation of the Inhibitory Activity by Protein Zymographic Analysis

T2 sequence (P22894 100-262 limits assumed): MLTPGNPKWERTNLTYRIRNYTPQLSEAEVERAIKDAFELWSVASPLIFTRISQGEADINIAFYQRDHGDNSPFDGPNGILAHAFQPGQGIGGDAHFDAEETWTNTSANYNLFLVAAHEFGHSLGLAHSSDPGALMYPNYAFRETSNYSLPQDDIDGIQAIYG

| SMILES | IC50 [1] [µM] | Ki [2] [µM] | MMP-8 (Ki value) [2] |
| --- | --- | --- | --- |
| CC(S)CCn1c(=O)[nH]c(=O)c2ccccc21 (racemic) [Example 3, (R,S)-1-(3-mercaptobut-1-yl)-chinazolin-2,4(1H,3H)-dione] | 13.2 | 38.5 | – |
| CC(CCS)n1c(=O)[nH]c2ccccc2c1=O (racemic) [Example 18, (R,S)-3-[3-(1-methyl)-mercaptopropyl]-chinazolin-2,4(1H,3H)-dione] | 8.3 | 6 | – |
| O=c1[nH]c(=O)n(CCCS)c2ccccc12 [Example 4, 1-(3-mercaptopropyl)-chinazolin-2,4(1H,3H)-dione] | 5 | 7 | – |
| O=c1[nH]c(=O)n(CCS)c2ccccc12 [Example 5, 1-(2-mercaptoethyl)-chinazolin-2,4(1H,3H)-dione] | 61.3 | 70 | – |
| Cn1c(=O)c2ccccc2n(CCCS)c1=O [Example 7, 1-(3-mercaptoprop-1-yl)-3-methyl-chinazolin-2,4(1H,3H)-dione] | 6 | – | negative |
| O=c1[nH]c2ccccc2c(=O)n1CCCCS [Example 12, 3-(4-mercaptobut-1-yl)-chinazolin-2,4(1H,3H)-dione] | 8.3 | 11 | – |
| Cn1c(=O)c2sccc2n(CCCS)c1=O [Example 14, 1-(3-mercaptoprop-1-yl)-3-methyl-thieno(3,2-d)-pyrimidin-2,4(1H,3H)-dione] | 20 | – | negative |
| Cn1c(=O)c2sccc2n(CCS)c1=O [Example 17, 1-(2-mercaptoethyl)-3-methyl-thieno[3,2-d]-pyrimidine-2,4(1H,3H)-dione] | 20 | – | negative |
